Laboratory results as given in patent US20090312413A1, “Composition Comprising Tanshinone Compounds Isolated From The Extract Of Salviae Miltiorrhizae Radix For Treating Or Preventing Cognitive Dysfunction And The Use Thereof” (DIGITAL BIOTECH CO., LTD., priority 2005, published 2009).

Key:
[1] = test system: HT 22 mouse neuronal cell line; assay: Inhibition test of beta amyloid toxicity (MTT); format: cell-based; details: HT22 cells, 25 μM aggregated beta amyloid, 18 hours
Protocol: HT 22 mouse neuronal cell line was incubated in DMEM (Dulbecco's Modified Eagle's Medium, Gibco-BRL) medium supplemented with 10% FBS (Fetal Bovine Serum, Hyclone) and 1% penicillin/streptomycin (Sigma Co.) Prior to test, HT22 cell was incubated on 96 well plates with a density of 5×10^3 cell/well and further incubated in serum free DMEM medium for 1 hour before the treatment of test sample. Various concentration of diethyl ether extract prepared in Example 1 used as a test sample was added thereto and incubated for 1 hour. Aggregated beta amyloid (US peptide) was treated thereto to the concentration of 25 μM and incubated for 18 hours to induce cell necrosis. 5 mg/ml of MTT (3-(4,5-dimethyl-2-thiazolyl)-2,5-diphenyl-2H-tetrazolium bromide) solution was added each well with 15 μl/well and the well was incubated for 4 hours. Dissolving buffer solution (10% SDS, 50% dimethyl formamide, pH 4.7) was added to each well with 100 μl/well and reacted for overnight. 18 hours after the reaction, the absorbance of solution was determined by microplate reader (SAFIRE, TECAN) at 570 nm/630 nm wavelength (Gillardon, F. et al., Brain Research, 706(1) pp 169-172, 1996).

[2] = test system: mice administered aggregated beta amyloid 1-42; assay: AD acute model, passive avoidance test; format: in vivo, mouse; details: oral, mice given beta amyloid, p<0.05
Protocol: For passive avoidance test, male ICR mouse weighing 25 g purchased from Samtaco Co. was bred with five mice per cage and the cage was kept with following condition maintaining the temperature of 22±2° C. and the relative humidity of […] under the regularly controlled light/dark condition with an interval of 12 hours.
Synthetic beta amyloid 1-42 (BACHEM) was dissolved in DMSO in order to be 250 μM solution and diluted with PBS to 10 nM and aggregated at 37° C. for four days (Passive Avoidance test) or six days (Y maze test).
Aggregated beta amyloid 1-42 was administrated into the mice according to the procedure disclosed in the literature (Lausen & Belknap, J. Pharmacol. Methods, 16 pp 355-357, 1986).
50 μl of aggregated beta amyloid 1-42 was administrated into the 2.4 mm depth of bregma region with 50 μl of Hamilton micro-syringe equipped with 26-gauge needle. The behavior tests were divided into Y maze test and PA (passive avoidance) test after the beta amyloid administration. Y maze test was performed 2 days after the administration and PA test was 3 days after the administration. Each test was done with more than 10 mice. […]
At 24 hours after the training session, the identical experiment was performed again with mouse to measure the latency time staying at the light chamber. […] Latency to enter the dark compartment from the light compartment was measured as a step through latency. […]

[3] = test system: mice directly treated with beta amyloid; assay: AD acute model, Y maze test; format: in vivo, mouse; details: 50 mg/kg oral, mice given beta amyloid intracerebro-ventricularly
Protocol: For passive avoidance test, male ICR mouse weighing 25 g purchased from Samtaco Co. was bred with five mice per cage and the cage was kept with following condition maintaining the temperature of 22±2° C. and the relative humidity of […] under the regularly controlled light/dark condition with an interval of 12 hours. Synthetic beta amyloid 1-42 (BACHEM) was dissolved in DMSO in order to be 250 μM solution and diluted with PBS to 10 nM and aggregated at 37° C. for four days (Passive Avoidance test) or six days (Y maze test). Aggregated beta amyloid 1-42 was administrated into the mice according to the procedure disclosed in the literature (Lausen & Belknap, J. Pharmacol. Methods, 16 pp 355-357, 1986). 50 μl of aggregated beta amyloid 1-42 was administrated into the 2.4 mm depth of bregma region with 50 μl of Hamilton micro-syringe equipped with 26-gauge needle. The behavior tests were divided into Y maze test and PA (passive avoidance) test after the beta amyloid administration. […] The entering order of mice in the pathway was observed and the entering latency time was determined when four limbs was entered within the pathway. To determine the spatial memory, the determined spontaneous alteration behavior was calculated by following empirical formula 1 and the actual alteration was assigned to one time at the time that mice was entered three pathways continuously. […]

mouse brain = assay: Brain staining of AD acute model (Cresyl violet, ChAT, GFAP); format: in vivo
Protocol: At the end of the experiment, the brain of animals was delivered and kept in 10% formalin solution to staining. At the end of behavior test, the mouse brain was delivered, kept in 10% formalin solution for 24 hours and transferred to 30% sucrose solution. After fixing the brain, the brain was performed to coronal section with a width of 40 μm using by cryostat. The sliced brain was performed to Cresyl violet staining to confirm the injury of brain neuronal cell, to ChAT staining to confirm the injury of cholinergic neuron and to GFAP staining to confirm the activation of astrocytes. After the tissue was placed on gelatin-coated slide to stain with Cresyl violet, the tissue was performed to dehydration using ethanol. The tissue was incubated for about 3 minutes and dipped into 0.5% Cresyl Violet solution for 30 mins. After the solution was performed to […] with ethanol, the slice was dipped into xylene for 3 minutes. The dried tissue was fixed with Canada balsam mounting medium. In the washing process between all the antibody incubation, PBST was used to washing tissues. To reduce the activity of endogenous peroxidase activity, the tissue was pretreated with 0.5% H2O2 and then treated with 5% FBS at room temperature for 1 hour to remove non-specific binding. The tissue was incubated at 4° C. for overnight using by mouse anti-GFAP (1:200) monoclonal antibody and goat-anti-ChAT (1:200) polyclonal antibody. A horse radish peroxidase-conjugated anti-mouse IgG and anti-goat IgG secondary antibody (1:600) was incubated at room temperature for 1 hour and detected by DAB kit after the incubation.

[4] = Oral administration toxicity test; format: in vivo; details: 2000 mg/kg

Compound: CC(C)C1=Cc2ccc3c(c2C(=O)C1=O)C=CCC3(C)C [1,2-Didehydromiltirone, 1,2-didehydromiltirone]
- inhibitory effect on the toxicity of beta amyloid [1]: did not inhibit

Compound: CC(C)C1=Cc2ccc3c(c2C(=O)C1=O)CCCC3(C)C [Miltirone]
- inhibitory effect on the toxicity of beta amyloid [1]: did not inhibit

Compound: Cc1cccc2c3c(ccc12)C1=C(C(=O)C3=O)[C@@H](C)CO1 [dihydrotanshinone I]
- inhibitory effect on the toxicity of beta amyloid [1]: did not show any inhibitory effect

Compound: Cc1coc2c1C(=O)C(=O)c1c-2ccc2c1CCCC2(C)C [tanshinone IIA]
- latency time (step through latency, passive avoidance) [2]: significantly increased
- recovery of memory learning disorder (spontaneous alteration, Y maze) [3]: recovered
- injury of cholinergic neuron caused by beta amyloid (mouse brain; ChAT staining): recovered the injury of cholinergic neuron
- injury of memory learning correlated with hippocampus injury (brain staining) (mouse brain; Cresyl violet staining, mouse brain after beta amyloid): significantly recovered
- activity of astrocyte caused by beta amyloid (mouse brain; GFAP staining): reduced the increased activity of astrocyte
- inhibitory effect on the toxicity of beta amyloid [1]: mere inhibitory effect
- toxicity at oral administration test [4]: no toxicity

Compound: Cc1coc2c1C(=O)C(=O)c1c-2ccc2c(C)cccc12 [tanshinone I]
- inhibitory effect on the toxicity of beta amyloid [1]: did not show any inhibitory effect
